target: T1, GPCR GPR40 (Rattus norvegicus, UniProt Q8K3T4); test: In vitro FLIPR assay with recombinant cells which express the GPCR GPR40; type: cell-based; details: recombinant HEK293 cells expressing rat GPR40; agonist-induced change in intracellular Ca2+ (Fluo-4, FLIPR); 100% = 10 μM linoleic acid
T1 construct: expressed in transfected cells; host or cells: HEK293
Method: In Vitro FLIPR Assay with Recombinant Cells which Express the GPCR GPR40
Function-testing assays were performed by means of the FLIPR technique (“Fluorescence Imaging Plate Reader”, Molecular Devices Corp.). To this end, agonist-induced changes in the intracellular concentration of Ca^2+ were determined in recombinant HEK293 cells which expressed the GPCR GPR40 (species: rat). For the studies, cells were sown into 96-well microtiter plates (60 000 cells/well) and left to grow overnight. The medium was removed and the cells were incubated in buffer which contained the fluorescent dye Fluo-4. After this loading with dye, the cells were washed, test substance was added and changes in the intracellular Ca^2+ concentration were measured in the FLIPR unit. Results were presented as the percentage change relative to the control (0%: no test substance added; 100%: 10 μM reference agonist linoleic acid added) and used to calculate dose/effect curves, and EC50 values were determined.

T1 sequence (Q8K3T4 whole entry): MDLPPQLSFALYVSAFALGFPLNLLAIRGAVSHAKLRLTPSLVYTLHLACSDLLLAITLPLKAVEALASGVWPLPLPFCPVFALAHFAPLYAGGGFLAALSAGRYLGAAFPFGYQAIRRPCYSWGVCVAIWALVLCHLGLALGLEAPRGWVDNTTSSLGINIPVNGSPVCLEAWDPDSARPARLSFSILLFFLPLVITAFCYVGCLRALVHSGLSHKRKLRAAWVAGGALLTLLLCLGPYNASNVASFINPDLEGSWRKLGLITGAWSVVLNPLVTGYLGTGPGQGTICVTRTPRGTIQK

Row | SMILES | EC50 [nM]
1 | CC#CC(CC(=O)O)c1ccc(OCCC(C)Oc2ccc(C(F)(F)F)cc2)cc1 (single isomer, unassigned) [Example 23, 3-{4-[(S or R)-3-(4-Trifluoromethylphenoxy)butoxy]phenyl}hex-4-ynoic acid] | 210
2 | CC#CC(CC(=O)O)c1ccc(OCCC(C)Oc2ccc(C(F)(F)F)cc2)cc1 (single isomer, unassigned) [Example 24, 3-{4-[(R or S)-3-(4-Trifluoromethylphenoxy)butoxy]phenyl}hex-4-ynoic acid] | 980
3 | CC#CC(CC(=O)O)c1ccc(OCCCCOc2cccc(C(C)(C)C)c2)cc1 (centres unmarked) [Example 3, 3-{4-[4-(3-tert-Butylphenoxy)butoxy]phenyl}hex-4-ynoic acid] | 350
4 | CC#CC(CC(=O)O)c1ccc(OC(C)CCOc2ccc(C(F)(F)F)cc2)cc1 (centres unmarked) [Example 25, 3-{4-[1-Methyl-3-(4-trifluoromethylphenoxy)propoxy]phenyl}hex-4-ynoic acid] | 1990
5 | CC#CC(CC(=O)O)c1ccc(OCCC(C)Oc2cccc(C)c2)cc1 (centres unmarked) [Example 26, 3-[4-(3-m-Tolyloxybutoxy)phenyl]-hex-4-ynoic acid] | 50
6 | CC#CC(CC(=O)O)c1ccc(OCC[C@@H](C)Oc2cccc(C)c2)cc1 (stereo partly drawn) [Example 27, 3-[4-((R)-3-m-Tolyloxybutoxy)phenyl]hex-4-ynoic acid] | 50
7 | CC#CC(CC(=O)O)c1ccc(OCC[C@H](C)Oc2cccc(C)c2)cc1 (stereo partly drawn) [Example 28, 3-[4-((S)-3-m-Tolyloxybutoxy)phenyl]hex-4-ynoic acid] | 50
8 | CC#CC(CC(=O)O)c1ccc(OCC[C@@H](C)Oc2ccccc2C(F)(F)F)cc1 (stereo partly drawn) [Example 29, 3-{4-[(R)-3-(2-Trifluoromethylphenoxy)butoxy]phenyl}hex-4-ynoic acid] | 170
9 | CC#CC(CC(=O)O)c1ccc(OCC[C@H](C)Oc2ccccc2C(F)(F)F)cc1 (stereo partly drawn) [Example 30, 3-{4-[(S)-3-(2-Trifluoromethylphenoxy)butoxy]phenyl}hex-4-ynoic acid] | 140
10 | CC#CC(CC(=O)O)c1ccc(OCC[C@@H](C)Oc2ccc(C(F)(F)F)cc2Cl)cc1 (stereo partly drawn) [Example 31, 3-{4-[(R)-3-(2-Chloro-4-trifluoromethylphenoxy)butoxy]phenyl}hex-4-ynoic acid] | 640
11 | CC#CC(CC(=O)O)c1ccc(OCC[C@H](C)Oc2ccc(C(F)(F)F)cc2Cl)cc1 (stereo partly drawn) [Example 32, 3-{4-[(S)-3-(2-Chloro-4-trifluoromethylphenoxy)butoxy]phenyl}hex-4-ynoic acid] | 770
12 | CC#CC(CC(=O)O)c1ccc(OC(C)CCOc2cccc(C(C)(C)C)c2)cc1 (centres unmarked) [Example 33, 3-{4-[3-(3-tert-Butylphenoxy)-1-methylpropoxy]phenyl}hex-4-ynoic acid] | 1610
13 | CC#CC(CC(=O)O)c1ccc(OCC(C)COc2cccc(C(C)(C)C)c2)cc1 (centres unmarked) [Example 35, 3-{4-[3-(3-tert-Butylphenoxy)-2-methylpropoxy]phenyl}hex-4-ynoic acid] | 1090
14 | CC#CC(CC(=O)O)c1ccc(OCC(C)COc2cc(C)ccc2C(C)C)cc1 (centres unmarked) [Example 36, 3-{4-[3-(2-Isopropyl-5-methylphenoxy)-2-methylpropoxy]phenyl}hex-4-ynoic acid] | 1590
15 | CC#CC(CC(=O)O)c1ccc(OCC(C)COc2ccc(C(C)(C)C)cc2Cl)cc1 (centres unmarked) [Example 37, 3-{4-[3-(4-tert-Butyl-2-chlorophenoxy)-2-methylpropoxy]phenyl}hex-4-ynoic acid] | 6010
16 | CC#CC(CC(=O)O)c1ccc(OCC(C)COc2cc(C(C)C)ccc2C)cc1 (centres unmarked) [Example 39, 3-{4-[3-(5-Isopropyl-2-methylphenoxy)-2-methylpropoxy]phenyl}hex-4-ynoic acid] | 3200
17 | CC#CC(CC(=O)O)c1ccc(OCC(CC)COc2ccc(C(F)(F)F)cc2)cc1 (centres unmarked) [Example 42, 3-{4-[2-(4-Trifluoromethylphenoxymethyl)butoxy]phenyl}hex-4-ynoic acid] | 1780
18 | CC#CC(CC(=O)O)c1ccc(OCC(CC)COc2cccc(C(C)(C)C)c2)cc1 (centres unmarked) [Example 43, 3-{4-[2-(3-tert-Butylphenoxymethyl)butoxy]phenyl}hex-4-ynoic acid] | 2030
19 | CC#CC(CC(=O)O)c1ccc(OCC(CCC)COc2ccc(C(F)(F)F)cc2)cc1 (centres unmarked) [Example 44, 3-{4-[2-(4-Trifluoromethylphenoxymethyl)pentyloxy]phenyl}hex-4-ynoic acid] | 5100

The remaining compounds from weak to strong by EC50, led by results:

Row | EC50 [nM] | SMILES
20 | 830 | CC#CC(CC(=O)O)c1ccc(OCC(C)COc2ccc(Br)c(Cl)c2)cc1 (centres unmarked) [Example 40, 3-{4-[3-(4-Bromo-3-chlorophenoxy)-2-methylpropoxy]phenyl}hex-4-ynoic acid]
21 | 810 | CC#CC(CC(=O)O)c1ccc(OCC(C)COc2ccc(C(F)(F)F)cc2)cc1 (centres unmarked) [Example 34, 3-{4-[2-Methyl-3-(4-trifluoromethylphenoxy)propoxy]phenyl}hex-4-ynoic acid]
22 | 800 | CC#CC(CC(=O)O)c1ccc(OCCOc2ccccc2OC)cc1 (centres unmarked) [Example 21, 3-{4-[2-(2-Methoxyphenoxy)ethoxy]phenyl}hex-4-ynoic acid]
23 | 800 | CC#CC(CC(=O)O)c1ccc(OCC(C)(C)COc2ccc(C(F)(F)F)cc2)cc1 (centres unmarked) [Example 41, 3-{4-[2,2-dimethyl-3-(4-trifluoromethylphenoxy)propoxy]phenyl}hex-4-ynoic acid]
24 | 730 | CC#CC(CC(=O)O)c1ccc(OCC(C)COc2ccccc2C(F)(F)F)cc1 (centres unmarked) [Example 38, 3-{4-[2-methyl-3-(2-trifluoromethylphenoxy)propoxy]phenyl}hex-4-ynoic acid]
25 | 720 | CC#CC(CC(=O)O)c1ccc(OCCCOc2cccc(C(F)(F)F)c2Cl)cc1 (centres unmarked) [Example 7, 3-{4-[3-(2-Chloro-3-trifluoromethylphenoxy)propoxy]phenyl}hex-4-ynoic acid]
26 | 610 | CC#CC(CC(=O)O)c1ccc(OCCCOc2cc(C(F)(F)F)ccc2Cl)cc1 (centres unmarked) [Example 9, 3-{4-[3-(2-Chloro-5-trifluoromethylphenoxy)propoxy]phenyl}hex-4-ynoic acid]
27 | 610 | CC#CC(CC(=O)O)c1ccc(OCCOc2ccc(C(C)(C)C)cc2)cc1 (centres unmarked) [Example 16, 3-{4-[2-(4-tert-Butylphenoxy)ethoxy]phenyl}hex-4-ynoic acid]
28 | 550 | CC#CC(CC(=O)O)c1ccc(OCCOc2ccc(C(F)(F)F)nc2)cc1 (centres unmarked) [Example 10, 3-{4-[2-(6-Trifluoromethylpyridin-3-yloxy)ethoxy]phenyl}hex-4-ynoic acid]
29 | 460 | CC#CC(CC(=O)O)c1ccc(OCCOc2ccccc2F)cc1 (centres unmarked) [Example 18, 3-{4-[2-(2-Fluorophenoxy)ethoxy]phenyl}hex-4-ynoic acid]
30 | 440 | CC#CC(CC(=O)O)c1ccc(OCCCOc2cccc(C(C)(C)C)c2)cc1 (centres unmarked) [Example 1, 3-{4-[3-(3-tert-Butylphenoxy)propoxy]phenyl}hex-4-ynoic acid]
31 | 400 | CC#CC(CC(=O)O)c1ccc(OCCCOc2cc(C(F)(F)F)cc(C(F)(F)F)c2)cc1 (centres unmarked) [Example 5, 3-{4-[3-(3,5-bis(Trifluoromethyl)phenoxy)propoxy]phenyl}hex-4-ynoic acid]
32 | 360 | CC#CC(CC(=O)O)c1ccc(OCCOc2ccccc2)cc1 (centres unmarked) [Example 17, 3-{4-[2-Phenoxyethoxy]phenyl}hex-4-ynoic acid]
33 | 350 | CC#CC(CC(=O)O)c1ccc(OCCCOc2ccc(C(F)(F)F)nc2)cc1 (centres unmarked) [Example 8, 3-{4-[3-(6-Trifluoromethylpyridin-3-yloxy)propoxy]phenyl}hex-4-ynoic acid]
34 | 180 | CC#CC(CC(=O)O)c1ccc(OCCOc2ccccc2Cl)cc1 (centres unmarked) [Example 19, 3-{4-[2-(2-Chlorophenoxy)ethoxy]phenyl}hex-4-ynoic acid]
35 | 170 | CC#CC(CC(=O)O)c1ccc(OCCCOc2ccccc2C(F)(F)F)cc1 (centres unmarked) [Example 6, 3-{4-[3-(2-Trifluoromethylphenoxy)propoxy]phenyl}hex-4-ynoic acid]
36 | 110 | CC#CC(CC(=O)O)c1ccc(OCCCOc2ccc(C(F)(F)F)cc2Cl)cc1 (centres unmarked) [Example 4, 3-{4-[3-(2-chloro-4-trifluoromethylphenoxy)propoxy]phenyl}hex-4-ynoic acid]
37 | 80 | CC#CC(CC(=O)O)c1ccc(OCCCOc2ccc(C(F)(F)F)cc2)cc1 (centres unmarked) [Example 11, 3-{4-[3-(4-Trifluoromethylphenoxy)propoxy]phenyl}hex-4-ynoic acid]
38 | 80 | CC#CC(CC(=O)O)c1ccc(OCCOc2ccccc2C)cc1 (centres unmarked) [Example 20, 3-{4-[2-o-Tolyloxyethoxy]phenyl}hex-4-ynoic acid]
39 | 70 | CC#CC(CC(=O)O)c1ccc(OCCCOc2cccc(C)c2)cc1 (centres unmarked) [Example 12, 3-{4-[3-m-Tolyloxypropoxy]phenyl}hex-4-ynoic acid]
40 | 60 | CC#CC(CC(=O)O)c1ccc(OCCOc2cccc(C(F)(F)F)c2)cc1 (centres unmarked) [Example 15, 3-{4-[2-(3-Trifluoromethylphenoxy)ethoxy]phenyl}hex-4-ynoic acid]
41 | 50 | CC#CC(CC(=O)O)c1ccc(OCCOc2cccc(C(C)(C)C)c2)cc1 (centres unmarked) [Example 2, 3-{4-[2-(3-tert-Butylphenoxy)ethoxy]phenyl}hex-4-ynoic acid]
42 | 50 | CC#CC(CC(=O)O)c1ccc(OCCOc2cccc(C)c2)cc1 (centres unmarked) [Example 14, 3-{4-[2-m-Tolyloxyethoxy]phenyl}hex-4-ynoic acid]
43 | 50 | CC#CC(CC(=O)O)c1ccc(OCCOc2ccccc2C(F)(F)F)cc1 (centres unmarked) [Example 22, 3-{4-[2-(2-Trifluoromethylphenoxy)ethoxy]phenyl}hex-4-ynoic acid]
44 | 40 | CC#CC(CC(=O)O)c1ccc(OCCOc2cccc(Cl)c2)cc1 (centres unmarked) [Example 13]

Reference: patent US20120004166A1, “ARYLOXYALKYLENE-SUBSTITUTED HYDROXYPHENYLHEXYNOIC ACIDS, PROCESS FOR PREPARATION THEREOF AND USE THEREOF AS A MEDICAMENT” (SANOFI, priority 2010, published 2012)
